According to patent US11542492B2 (Celgene CAR LLC, priority 2009, dated 2023):

Biological target: T1, recombinant human cIAP-1 (Homo sapiens, UniProt Q13490)
T1 construct: purchased R&D Systems 818-IA
Test: Fluorescence polarization competition binding assay, cIAP-1
Conditions: c-IAP-1, 3 h
Protocol: Homogeneous, Fluorescence Polarization, Competition Binding Assay Protocol for Affinity Assessment of Compound Binding to XIAP, cIAP-1 and ML-IAPβ BIR3 Domains
1× stocks of recombinant human XIAP; BIR3 domain (895-XB), recombinant human cIAP-1 (818-IA) or recombinant human ML-IAPβ (818-IA) from R&D Systems and Fluorescence Polarization (FP) assay tracer (Atto-647 tagged IAP inhibitor probe compound) were prepared in assay buffer consisting of 25 mM Tris-HCL, pH 7.5 (Sigma), 10 mM […] (Sigma), 1 mM DTT (Fluka) and 0.005% TritonX-100 (Pierce). While IAP protein and tracer equilibrated at ambient temp in the dark (30-60 min), 100× stocks of test compound were prepared in 50% DMSO:H2O, serially diluted and spotted (0.5 µL/well) in duplicate wells of a 384-well, flat bottom, polypropylene, black assay plate (Greiner #781209). […] Competition binding between test compounds and assay tracer was initiated by the addition of 50 µL/well of pre-equilibrated IAP protein and assay tracer. Displacement of the assay tracer was measured in a Synergy plate reader from BioTek (Winooski, Vt.) at λex620/λem680 through a 660 nm half-sized dicroich mirror and S/P polarizing filters every 30 min for 3 hr. (See Huang, X., Journal of Biomolecular Screening 8, 2003). The resulting compound dose response data were fit to a one-site binding Ki model in GraphPad Prism from GraphPad Software (San Diego, Calif.).

T1 sequence (Q13490 whole entry): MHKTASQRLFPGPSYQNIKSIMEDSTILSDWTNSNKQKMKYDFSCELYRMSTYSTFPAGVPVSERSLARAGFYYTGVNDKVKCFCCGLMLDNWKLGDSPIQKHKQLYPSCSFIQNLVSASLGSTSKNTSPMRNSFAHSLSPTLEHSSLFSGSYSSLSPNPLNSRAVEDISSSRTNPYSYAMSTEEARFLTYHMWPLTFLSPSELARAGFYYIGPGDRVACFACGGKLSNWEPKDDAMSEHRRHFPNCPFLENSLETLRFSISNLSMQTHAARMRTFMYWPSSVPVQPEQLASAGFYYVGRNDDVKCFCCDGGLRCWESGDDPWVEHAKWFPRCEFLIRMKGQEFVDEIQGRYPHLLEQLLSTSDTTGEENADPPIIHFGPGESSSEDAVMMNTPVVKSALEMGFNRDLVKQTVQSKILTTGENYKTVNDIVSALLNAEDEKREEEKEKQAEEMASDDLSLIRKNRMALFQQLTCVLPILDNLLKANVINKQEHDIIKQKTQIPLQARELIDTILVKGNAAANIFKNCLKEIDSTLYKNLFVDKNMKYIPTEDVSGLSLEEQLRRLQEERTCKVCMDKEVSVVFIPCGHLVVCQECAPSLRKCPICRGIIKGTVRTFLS

Row | Compound | Ki [nM]
1 | CN[C@@H](C)C(=O)N[C@H]1CCCC[C@H]2CC[C@@H](C(=O)NCc3cccc(C(=O)N[C@H]4CCOC4=O)c3)N2C1=O [VII-13, (3S,6S,10aS)-6-((S)-2-(methylamino)propanamido)-5-oxo-N-(3-((S)-2-oxotetrahydrofuran-3-ylcarbamoyl)benzyl)decahydropyrrolo[1,2-a]azocine-3-carboxamide] | 100 to 1000
2 | CN[C@@H](C)C(=O)N[C@H]1CCCC[C@H]2CC[C@@H](C(=O)NCc3cccc(C(C(C)=O)C(C)=O)c3)N2C1=O [VII-8] | 100 to 1000
3 | CN[C@@H](C)C(=O)N[C@H]1CCCC[C@H]2CC[C@@H](C(=O)NCc3cccc(C(=O)N4CCOC(=O)C4)c3)N2C1=O [VII-31] | 100 to 1000
4 | CN[C@@H](C)C(=O)N[C@H]1CCCC[C@H]2CC[C@@H](C(=O)NCc3cccc(NC(=O)C=C(C)C)c3)N2C1=O [VII-12] | 10 to 100
5 | CN[C@@H](C)C(=O)N[C@H]1CCCC[C@H]2CC[C@@H](C(=O)NCc3cccc(NC(=O)[C@@H]4CCC(=O)O4)c3)N2C1=O [VII-3] | 100 to 1000
6 | CN[C@@H](C)C(=O)N[C@H]1CCCC[C@H]2CC[C@@H](C(=O)NCc3cccc(C(=O)N[C@@H]4CCOC4=O)c3)N2C1=O [VII-27] | 100 to 1000
7 | CN[C@@H](C)C(=O)N[C@H]1CCCC[C@H]2CC[C@@H](C(=O)NCc3cccc(NC(=O)C4(C(C)=O)CC4)c3)N2C1=O [VII-34] | 100 to 1000
8 | CN[C@@H](C)C(=O)N[C@H]1CCCC[C@H]2CC[C@@H](C(=O)NCc3cccc(C(=O)NC[C@@H]4CCC(=O)O4)c3)N2C1=O [VII-42] | 100 to 1000
9 | CN[C@@H](C)C(=O)N[C@H]1CCCC[C@H]2CC[C@@H](C(=O)NCc3cccc(C(=O)N4CCC5C[C@H]4C(=O)O5)c3)N2C1=O [VII-47] | 1000 to 10000
10 | CN[C@@H](C)C(=O)N[C@H]1CCCC[C@H]2CC[C@@H](C(=O)NCc3cccc(C(=O)OC4CCOC4=O)c3)N2C1=O (some centres unmarked) [VII-15] | 100 to 1000
11 | CN[C@@H](C)C(=O)N[C@H]1CCCC[C@H]2CC[C@@H](C(=O)NCc3cccc(NC(=O)CC(C)=O)c3)N2C1=O [VII-6] | 10 to 100
12 | CN[C@@H](C)C(=O)N[C@H]1CCCC[C@H]2CC[C@@H](C(=O)NCc3cccc(NC(=O)[C@@H]4CC(=O)N4)c3)N2C1=O [VII-4] | 100 to 1000
13 | CN[C@@H](C)C(=O)N[C@H]1CCCC[C@H]2CC[C@@H](C(=O)NCc3cccc(NC(=O)C4CCOC4=O)c3)N2C1=O (some centres unmarked) [VII-44] | 100 to 1000
14 | CN[C@@H](C)C(=O)N[C@H]1CCCC[C@H]2CC[C@@H](C(=O)NCc3cccc(NC(=O)[C@@H]4CCC(=O)N4)c3)N2C1=O [VII-38] | 1000 to 10000
15 | CC(=O)C(C(C)=O)c1cccc(CNC(=O)[C@@H]2CC[C@@H]3CCCC[C@H](NC(=O)[C@H](C)N(C)C(=O)OC(C)(C)C)C(=O)N32)c1 [VII-7, tert-butyl(S)-1-((3S,6S,10aS)-3-(3-(2,4-dioxopentan-3-yl)benzylcarbamoyl)-5-oxodecahydropyrrolo[1,2-a]azocin-6-ylamino)-1-oxopropan-2-yl(methyl)carbamate] | > 10000
16 | CN[C@@H](C)C(=O)N[C@H]1CCCC[C@H]2CC[C@@H](C(=O)NCc3cccc(NC(=O)C45CC[C@@](C)(C(=O)O4)C5(C)C)c3)N2C1=O [VII-24] | 100 to 1000
17 | CN[C@@H](C)C(=O)N[C@H]1CCCC[C@H]2CC[C@@H](C(=O)NCc3cccc(OC4CCOC4=O)c3)N2C1=O (some centres unmarked) [VII-17] | 100 to 1000
18 | CN[C@@H](C)C(=O)N[C@H]1CCCC[C@H]2CC[C@@H](C(=O)NCc3cccc(NC(=O)C4CCCC(=O)O4)c3)N2C1=O (some centres unmarked) [VII-46] | 100 to 1000
19 | CN[C@@H](C)C(=O)N[C@H]1CCCC[C@H]2CC[C@@H](C(=O)NCc3cccc(C(=O)N4C[C@@H]5C[C@H]4C(=O)O5)c3)N2C1=O [VII-20, (3S,6S,10aS)-6-((S)-2-(methylamino)propanamido)-5-oxo-N-(3-((1S,4S)-3-oxo-2-oxa-5-azabicyclo[2.2.1]heptane-5-carbonyl)benzyl)decahydropyrrolo[1,2-a]azocine-3-carboxamide] | 100 to 1000
20 | CN[C@@H](C)C(=O)N[C@H]1CCCC[C@H]2CC[C@@H](C(=O)NCc3cccc(CNC(=O)[C@@H]4CCC(=O)O4)c3)N2C1=O [VII-32] | 100 to 1000
